Laboratory results: ChEMBL document CHEMBL4138126, “Synthesis, antiproliferative, anti-tubulin activity, and docking study of new 1,2,4-triazoles as potential combretastatin analogues” (Eur J Med Chem, 2017)

Tests used:
Assay type in all cases: functional
HepG2 [1] = test: Induction of apoptosis in human HepG2 cells assessed as late apoptotic cells level at 1.41 uM by Annexin V and propidium iodide staining based flow cytometry
HepG2 [2] = test: Induction of cell cycle arrest in human HepG2 cells assessed as accumulation at S phase at cytotoxic IC50 by propidium iodide staining based flow cytometry (reference value: 25.2%)
HepG2 [3] = test: Induction of apoptosis in human HepG2 cells at cytotoxic IC50 by propidium iodide staining based flow cytometry (reference value: 1.2%)
HepG2 [4] = test: Induction of apoptosis in human HepG2 cells assessed as early apoptotic cells level at 1.41 uM by Annexin V and propidium iodide staining based flow cytometry
HepG2 [5] = test: Induction of cell cycle arrest in human HepG2 cells assessed as accumulation at G1 phase at cytotoxic IC50 by propidium iodide staining based flow cytometry (reference value: 66.4%)

## CCOc1ccc(-n2nc(C(=O)NCc3cc(F)cc(F)c3)nc2-c2cc(OC)c(OC)c(OC)c2)cc1
HepG2 [1]
  Activity: 14%
HepG2 [2]
  Activity: 26.3%
HepG2 [3]
  Activity: 16.7%
HepG2 [4]
  Activity: 21%
HepG2 [5]
  Activity: 35.4%
